Where two headings read alike, the source gives them in different places. One block for each molecule: values may come before it.
How the values were obtained:
pH of ILs = type: physicochemical
cellulases = settings: previous literatures; cited from earlier work
[1] = Biomass pretreatment using PBIL: enzymatic saccharification glucose yield
[2] = One-pot IL pretreatment and enzymatic saccharification (sugar yield); parameters: species or system Panicum virgatum; settings: for yield of glucose / yield of xylose: 160 °C
Description: FIG. 3. Effect of IL type on the sugar yield (pretreatment: 10 wt % SG loading, 90 wt % IL, 140° C., 1 h, saccharification: 10 wt % IL, 10 mg protein per g switchgrass, 50° C., 72 h.
FIG. 4A. Effects of some parameters on the sugar yield: Biomass loading at pretreatment. Normal operation conditions: pretreatment, 10 wt % SG loading, 90 wt % IL, 160° C., 0.5 h (3 h for ecucalyptus); saccharification, 10 wt % IL, 20 mg protein/g SG, 50° C., 72 h.
FIG. 4B. Effects of some parameters on the sugar yield: Temperature/time. Normal operation conditions: pretreatment, 10 wt % SG loading, 90 wt % IL, 160° C., 0.5 h (3 h for ecucalyptus); saccharification, 10 wt % IL, 20 mg protein/g SG, 50° C., 72 h.
In a typical procedure, SG (100 mg) was mixed with ([EOA][OAc]) at a 10% biomass loading in a 15 mL capped glass pressure tube and pretreated in a convection oven at 160° C. for 0.5 h. Untreated raw SG (30-40 mesh) was used as a control. […] Enzymatic saccharification step was operated at 50° C. for 72 hrs with constant agitation on an Enviro Genie SI-1200 rotator platform (Scientific Industries, Inc., Bohemia, N.Y.). The loading of enzyme cocktails (9CTec2/HTec2, v/v) is 20 mg EP per g SG.

[3] = IL pretreatment and saccharification of different feedstocks: corn stover; settings: corn stover (FIG. 4D)
Description: (§1) FIG. 4D. Effects of some parameters on the sugar yield: Biomass category. Normal operation conditions: pretreatment, 10 wt % SG loading, 90 wt % IL, 160° C., 0.5 h (3 h for ecucalyptus); saccharification, 10 wt % IL, 20 mg protein/g SG, 50° C., 72 h.
(§2) Thereafter, we explored the feasibilities of [EOA][OAc] for the pretreatment of different feedstocks including mixed feedstocks of SG and eucalyptus (1:1, w/w), eucalyptus (EU), and corn stover (CS).

[4] = Compositional analysis of switchgrass after IL pretreatment; parameters: species or system Panicum virgatum; settings: higher temperature pretreatment vs untreated
Excerpt: Thus, compositional analysis of untreated, and pretreated SG with [EOA][OAc] at different temperatures and time was studied and the results were summarized in Table 4. Solid recovery refers to the mass percentage of biomass (dry weight) recovered from the original biomass load. After washing, 55-81% of the biomass was recovered. […] Untreated SG contained 29.6% glucan, 18.4% xylan and 20% acid insoluble lignin (entry 1). […] This trend was most obvious after pretreatment under higher temperature where lignin content was reduced by 77% (untreated: 20% vs. pretreated: 4.7%). […] IL are consistent with our previous report by using basic ILs such as [Ch][Lys] and [C2C1Im][Lys].^13
Compositional analysis of SG before and after pretreatment was performed using NREL acidolysis protocols (LAP) LAP-002 and LAP-005, which was described in our previous work.^13 In a typical process, 200 mg of biomass and 2 mL of 72 wt % H2SO4 were incubated at 30° C. while shaking at 300 rpm for 1 h. The solution was diluted to 4 wt % H2SO4 with 56 mL of DI water and autoclaved for 1 h at 121° C. […] Carbohydrate concentrations were determined from the filtrate using an Agilent HPLC 1200 Series equipped with a Bio-Rad Aminex HPX-87H column and a Refractive Index detector. […] Acid insoluble lignin was quantified gravimetrically from the solid after heating overnight at 105° C. […]

[5] = system: Saccharomyces cerevisiae strain BY4741; assay: Toxicity test: yeast growth in IL solution; type: cell-based
Description: FIG. 5A. Toxicity test of [EOA][OAc] (A) and effect of biomass loading on sugar yield (B). Conditions: yeast strain: Saccharomyces cerevisiae strain BY4741, growth condition: in 24-well microplate with orbital-high intensity shaking/31° C./in IL solution (10 g/L glucose in each IL solutions), volume of the cell culture was 0.5 mL.
For toxicity screening, a wild type S. cerevisiae BY4741 strain was technically used and it was immersed in various IL concentrations from 2.5 to 15 wt %.

[6] = IL pretreatment and saccharification of different feedstocks: mixed feedstocks; settings: mixed feedstocks SG and eucalyptus 1:1 (FIG. 4D)
Description: as §1, §2

[7] = One-pot pretreatment and SSF (cellulosic ethanol production); parameters: species or system Panicum virgatum; settings: for theoretical ethanol yield: SSF
Description: (§3) FIG. 6A. Process optimization of one-pot ethanol fermentation after [EOA][OAc] pretreatment. Effect of yeast loading on ethanol fermentation. Conditions: pretreatment, 40 wt % SG loading, 60 wt % IL, 160° C., 0.5 h; saccharification, 5 wt % IL, 20 mg protein/g SG, pH 5, 50° C., 24 h; fermentation, 37° C., 72 h.
as §3, with “6B.” for “6A.”, “Illustration” for “Effect”, “the glucose consumption and” for “yeast loading on”, “production during SSF.” for “fermentation.”
FIG. 7. Illustration of the glucose consumption and ethanol production during SSF. Conditions: pretreatment, 40 wt % SG loading, 60 wt % IL, 160° C., 0.5 h; saccharification, 5 wt % IL, 20 mg protein/g SG, 50° C., 24 h; fermentation, 37° C., 72 h.
In a typical procedure, SG (100 mg) was mixed with ([EOA][OAc]) at a 40% biomass loading in a 15 mL capped glass pressure tube and pretreated in a convection oven at 160° C. for 0.5 h. After pretreatment, the pretreated slurry was diluted with DI-water to obtain a final IL concentration of 5 wt %, and pre-saccharificated for 24 h under the same aforementioned conditions. Simultaneously, wide type yeast strain BY4741 was prepared. After the addition of yeast strain, the SSF step was conducted for 72 hrs.

[8] = IL pretreatment and saccharification of different feedstocks: eucalyptus; settings: 3 h pretreatment (FIG. 4D)
Description: as §1, §2

[9] = optimized conditions, short time pretreatment
[10] = T/t 140/1, IL concentration not given

Molecule: NCCO.O=P(O)(O)O [EA-dihydrogenphosphate]
pH (pH of ILs; Table 2): 4.5

pH (pH of ILs; Table 2): 9
Molecule: NCCCC[C@H](N)C(=O)O.NCCO [EA-lysinate-m 1]

Molecule: CC(=O)[O-].CCn1cc[n+](C)c1 [[C2C1Im][OAc], 1-ethyl-3-methyl imidazolium acetate]
IL concentration known to deactivate cellulases (cellulases): ~5 wt %

Molecule: CCCCn1cc[n+](C)c1.[Cl-] [[C4C1Im][Cl], 1-n-butyl-3-methylimidazolium chloride]
IL concentration known to deactivate cellulases (cellulases): ~5 wt %

Molecule: C[N+](C)(C)CCO.C[N+](C)(C)CCO.O=P([O-])([O-])O [[Ch]2[HPO4]]
Enzymatic Saccharification Glucose yield % ([1]; T/t 140/1, IL 20%): 61.9% | Enzymatic Saccharification Glucose yield % ([1]; T/t 140/1, IL 50%): 55.1% | Enzymatic Saccharification Glucose yield % ([1]; T/t 140/1, IL 100%): 49.7% | pH (pH of ILs): 8

Molecule: C[N+](C)(C)CCO.C[N+](C)(C)CCO.C[N+](C)(C)CCO.O=P([O-])([O-])[O-] [[Ch]3[PO4]]
Enzymatic Saccharification Glucose yield % ([1]; T/t 140/1, IL 20%): 54.6% | Enzymatic Saccharification Glucose yield % ([1]; T/t 140/1, IL 50%): 61.1% | Enzymatic Saccharification Glucose yield % ([1]; T/t 140/1, IL 100%): 61.8% | pH (pH of ILs): 12.5

Molecule: C[N+](C)(C)CCO.O=P([O-])(O)O [[Ch][H2PO4], Cholinium dihydrogen-phosphate]
Enzymatic Saccharification Glucose yield % ([1]; T/t 140/1, IL 20%): 17.5% | Enzymatic Saccharification Glucose yield % ([1]; T/t 140/1, IL 50%): 16.9% | Enzymatic Saccharification Glucose yield % ([1]; T/t 140/1, IL 100%): 14.4% | pH (pH of ILs): 4.5 | pH (pH of ILs; Table 2): 4.5

Molecule: CC(=O)O.NCCO [[EOA][OAc], ethanolamine acetate]
glucose yield ([2]; 10% SG loading, 160 °C pretreated sample): ~85% | glucose yield ([2]; 40 wt % starting biomass loading (60 wt % IL), diluted to 5 wt % IL in saccharification (FIG. 5B)): comparative glucose yield with 20 wt % starting biomass loading | yield of glucose ([2]; pretreatment time 0.5 hrs): 85% | yield of xylose ([2]; pretreatment time 0.5 hrs): 35% | yield of glucose ([2]; pretreatment time 3 hrs): 87% | yield of xylose ([2]; pretreatment time 3 hrs): 42% | glucose yield ([2]; SG loading 25 wt %): Around 60% | glucose yield ([2]; biomass loading 5 to 20 wt % at pretreatment (FIG. 4A)): more than 75% | increase in digestibility of SG ([2]; from 140 to 160 °C): over 40% | sugar yield, IL screening ([2]; low pretreatment temperature and low enzyme loading (FIG. 3: 140 °C, 1 h, 10 mg protein per g switchgrass)): best performance | glucose (monomers) liberated from switchgrass [2, 9]: 85% | xylose (monomers) liberated from switchgrass [2, 9]: 35% | digestibility of SG ([2]; pretreatment 140 °C (FIG. 4B)): 60% | digestibility of SG ([2]; pretreatment 160 °C (FIG. 4B)): 85% | glucose released from SG ([2]; pretreatment 160 °C, 15 min): 45% | sugar yields [3]: best performance | lignin content reduced by [4]: 77% | yeast growth ([5]; 5 wt % IL concentration): better yeast growth | IL titer at which better yeast growth occurs ([5]; IL concentrations from 2.5 to 15 wt %, FIG. 5A): below 10 wt % | sugar yields [6]: low sugar yields | theoretical ethanol yield ([7]; 40 wt % SG loading at pretreatment): 70% | theoretical ethanol yield ([7]; yeast loading 0.1 wt % (1 g/L)): around 70% | ethanol produced ([7]; from the glucan present in 1 kg of SG): 117 g | overall conversion in one-pot ([7]; glucan balance, FIG. 7): 70% | glucose from saccharification converted to ethanol ([7]; glucan/glucose balance, FIG. 7): over 90% | ethanol yield versus yeast loading ([7]; yeast loading increased from 0.01 to 0.21 wt % (FIG. 6A)): no significant difference in ethanol yield | sugar yields [8]: low sugar yields

Molecule: CCCCN(CCCC)CCCC.O=P(O)(O)O [[N444][H2PO4]]
Enzymatic Saccharification Glucose yield % ([1]; T/t 50/3): 13.4 ± 2.6% | Enzymatic Saccharification Glucose yield % ([1]; T/t 90/3): 16.2 ± 0.6% | ILs pH (pH of ILs; Table 5): 4.5

Molecule: Cholinium bicarbonate [[Ch][Bicarbonate]]
Enzymatic Saccharification Glucose yield % [1, 10]: 52.8 ± 4.3%

Molecule: dimethylammonium dimethylcarbamate
Enzymatic Saccharification Glucose yield % [1, 10]: 55.2 ± 3.9%

Reference: patent publication US20190292572A1, “Novel protic or phosphate-based ionic liquids useful for lignocellulosic processing” (priority 2016, published 2019)
